Patent US11459331B2, “Chemical compounds” (Avista Pharma Solutions, Inc., priority 2019, dated 2022)

molecular target: T1, human EP4 receptor (Homo sapiens, UniProt P35408); assay: human EP4 receptor antagonist screen (Eurofins Cerep; cAMP HTRF, PGE2 30 nM stimulus, CHO cells); format: cell-based; settings: at 100 nM, EP4(h) antagonist effect, human recombinant (CHO cells), 10 min RT, read-out: % inhibition of control reference agonist response (PGE2)
T1 construct: Eurofins Cerep
Description: Compounds were assayed at Eurofins Cerep using the human EP4 receptor antagonist screen. Cellular antagonist effect was calculated as a % inhibition of control reference agonist response for each target (PGE2). In each EP4(h) experiment, a reference antagonist compound, GW627368X, was tested concurrently with the test compounds, and the data were compared with historical values determined at Eurofins. The experiments were accepted in accordance with Eurofins validation Standard Operating Procedure.

T1 sequence (P35408 whole entry): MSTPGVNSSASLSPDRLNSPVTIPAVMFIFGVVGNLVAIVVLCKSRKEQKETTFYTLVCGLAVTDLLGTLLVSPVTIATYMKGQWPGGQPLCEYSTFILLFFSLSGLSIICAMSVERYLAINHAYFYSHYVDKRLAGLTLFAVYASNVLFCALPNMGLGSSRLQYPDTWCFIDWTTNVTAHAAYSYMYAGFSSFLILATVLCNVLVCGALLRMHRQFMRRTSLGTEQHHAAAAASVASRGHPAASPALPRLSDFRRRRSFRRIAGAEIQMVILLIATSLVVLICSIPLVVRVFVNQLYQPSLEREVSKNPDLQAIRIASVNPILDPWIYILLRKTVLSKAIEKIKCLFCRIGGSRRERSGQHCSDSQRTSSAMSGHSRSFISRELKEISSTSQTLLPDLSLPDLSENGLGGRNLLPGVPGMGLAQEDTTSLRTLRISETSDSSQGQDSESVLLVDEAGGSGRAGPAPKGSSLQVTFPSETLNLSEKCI

Inhibition at 0.1 µM, ≥ 50%:
CCc1nc2c(C)nc(C)cn2c1-c1ccc(CCNC(=O)NS(=O)(=O)c2ccc(Cl)cc2)cc1 [Compound 1, 1-(4-chlorophenyl)sulfonyl-3-[2-[4-(2-ethyl-6,8-dimethyl-imidazo[1,2-a]pyrazin-3-yl)phenyl]ethyl]urea]
CCc1nc2c(C)nc(C)cn2c1-c1ccc(CCNC(=O)NS(=O)(=O)c2ccccc2C)cc1 [Compound 2, 1-[2-[4-(2-ethyl-6,8-dimethyl-imidazo[1,2-a]pyrazin-3-yl)phenyl]ethyl]-3-(o-tolylsulfonyl)urea]
CCc1nc2c(C)nc(-c3ccncc3)cn2c1-c1ccc(CCNC(=O)NS(=O)(=O)c2ccc(C)cc2)cc1 [Compound 13, 1-[2-[4-[2-ethyl-8-methyl-6-(4-pyridyl)imidazo[1,2-a]pyrazin-3-yl]phenyl]ethyl]-3-(p-tolylsulfonyl)urea]
Cc1ccc(S(=O)(=O)NC(=O)NCCc2ccc(-c3c(-c4ccon4)nc4c(C)nc(C)cn34)cc2)cc1 [Compound 15, 1-[2-[4-(2-isoxazol-3-yl-6,8-dimethyl-imidazo[1,2-a]pyrazin-3-yl)phenyl]ethyl]-3-(p-tolylsulfonyl)urea]
